Results: ChEMBL document CHEMBL4422615, “Novel non-xanthine antagonist of the A2B adenosine receptor: From HTS hit to lead structure” (Eur J Med Chem, 2019)
Calls of active or inactive are those of the source. No cut-off for these calls is given here.

Assays:
[1] = Partition coefficient, log P of the compound; format: physicochemical; details: octanol/water
Cytochrome P450 1A2 = biological target: T1, Cytochrome P450 1A2 (Homo sapiens, UniProt P05177); assay: Inhibition of CYP1A2 in human liver microsomes using phenacetin as substrate after 15 mins in presence of NADPH by LC-MS/MS analysis; format: ADME
T1 sequence (P05177 whole entry): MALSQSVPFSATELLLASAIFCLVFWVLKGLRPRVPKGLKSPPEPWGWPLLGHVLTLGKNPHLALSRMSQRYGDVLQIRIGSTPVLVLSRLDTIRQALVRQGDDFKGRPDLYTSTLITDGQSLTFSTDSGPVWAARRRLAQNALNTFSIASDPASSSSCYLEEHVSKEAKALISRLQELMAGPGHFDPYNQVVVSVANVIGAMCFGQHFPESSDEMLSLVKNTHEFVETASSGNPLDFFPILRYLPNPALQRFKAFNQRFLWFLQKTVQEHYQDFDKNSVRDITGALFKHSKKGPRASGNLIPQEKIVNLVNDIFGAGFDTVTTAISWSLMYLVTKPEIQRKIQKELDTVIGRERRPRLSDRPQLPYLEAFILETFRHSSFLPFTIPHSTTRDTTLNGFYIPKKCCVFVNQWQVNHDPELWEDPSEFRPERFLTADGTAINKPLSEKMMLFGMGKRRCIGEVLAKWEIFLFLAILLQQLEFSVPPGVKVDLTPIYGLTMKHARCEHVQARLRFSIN

Cytochrome P450 3A4 = Cytochrome P450 3A4 (Homo sapiens, UniProt P08684); assay: Inhibition of CYP3A4 in human liver microsomes using midazolam as substrate preincubated for 30 mins followed by substrate addition measured after 10 mins in presence of NADPH by LC-MS/MS analysis; format: ADME
[2] = Blood clearance in human by measuring intrinsic clearance in human hepatocytes by MS/MS analysis; format: ADME, cell-based
[3] = Efflux ratio in human Caco2 cells; format: ADME, cell-based; details: Caco-2
[4] = biological target: T2, Nuclear receptor subfamily 1 group I member 2 (Homo sapiens, UniProt O75469); assay: Activation of PXR in human HepG2 cells assessed as induction of CYP3A4 expression by luciferase reporter gene assay; format: ADME, cell-based
T2 sequence (O75469 whole entry): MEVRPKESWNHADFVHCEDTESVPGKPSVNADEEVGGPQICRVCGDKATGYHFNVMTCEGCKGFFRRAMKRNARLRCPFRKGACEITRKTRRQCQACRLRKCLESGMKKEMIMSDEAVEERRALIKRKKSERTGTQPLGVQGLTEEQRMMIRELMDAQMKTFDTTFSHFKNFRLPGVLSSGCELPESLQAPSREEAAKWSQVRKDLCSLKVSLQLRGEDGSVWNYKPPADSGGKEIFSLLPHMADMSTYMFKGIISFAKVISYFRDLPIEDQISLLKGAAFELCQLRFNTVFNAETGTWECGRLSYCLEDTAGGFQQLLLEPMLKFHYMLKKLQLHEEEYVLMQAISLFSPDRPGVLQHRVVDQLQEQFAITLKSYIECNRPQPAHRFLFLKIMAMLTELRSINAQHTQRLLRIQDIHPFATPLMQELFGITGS

[5] = Dose normalized AUC in rat at 0.3 mg/kg, iv administered as infusion for 15 mins by HPLC-MS/MS analysis; format: ADME, organism-based; details: in vivo, 0.25 h
[6] = Dose normalized AUC in dog at 0.3 mg/kg, iv administered as infusion for 15 mins by HPLC-MS/MS analysis; format: ADME, organism-based, Canis lupus familiaris; details: in vivo, 0.25 h
[7] = Clearance in dog blood at 0.3 mg/kg, iv administered as bolus dose by HPLC-MS/MS analysis; format: ADME, organism-based, Canis lupus familiaris
[8] = Oral bioavailability in rat at 1 mg/kg for 15 mins by HPLC-MS/MS analysis; format: ADME, organism-based; details: in vivo
Adenosine receptor A2a = Adenosine receptor A2a (Homo sapiens, UniProt P29274); assay: Antagonist activity at recombinant human A2A adenosine receptor expressed in CHO cells after 3 to 4 hrs by luciferase reporter gene assay; format: cell-based
Mus musculus = assay: Antifibrotic activity in FITC-induced C57BL/6J mouse pulmonary fibrosis model assessed as reduction in osteopontin level in lung at 100 to 500 mg/kg, bid administered via gavage pretreated for 45 mins before FITC addition until 72 hrs after FITC application by ELISA; format: functional, organism-based

Cytochrome P450 3A4, sequence (P08684 whole entry): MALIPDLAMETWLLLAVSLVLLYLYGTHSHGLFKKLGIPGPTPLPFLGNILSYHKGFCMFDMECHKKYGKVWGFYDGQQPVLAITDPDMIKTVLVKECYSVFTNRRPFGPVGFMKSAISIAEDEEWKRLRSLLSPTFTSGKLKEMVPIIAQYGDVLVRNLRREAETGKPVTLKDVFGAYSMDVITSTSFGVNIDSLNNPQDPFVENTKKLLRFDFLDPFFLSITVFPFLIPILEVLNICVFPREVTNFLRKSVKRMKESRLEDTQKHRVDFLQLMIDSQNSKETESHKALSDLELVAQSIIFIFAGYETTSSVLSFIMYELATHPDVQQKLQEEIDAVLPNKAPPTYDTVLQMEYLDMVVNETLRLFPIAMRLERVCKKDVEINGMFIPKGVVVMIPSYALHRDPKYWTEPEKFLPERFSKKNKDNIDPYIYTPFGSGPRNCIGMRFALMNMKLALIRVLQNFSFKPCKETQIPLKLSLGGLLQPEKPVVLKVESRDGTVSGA
Adenosine receptor A2a, sequence (P29274 whole entry): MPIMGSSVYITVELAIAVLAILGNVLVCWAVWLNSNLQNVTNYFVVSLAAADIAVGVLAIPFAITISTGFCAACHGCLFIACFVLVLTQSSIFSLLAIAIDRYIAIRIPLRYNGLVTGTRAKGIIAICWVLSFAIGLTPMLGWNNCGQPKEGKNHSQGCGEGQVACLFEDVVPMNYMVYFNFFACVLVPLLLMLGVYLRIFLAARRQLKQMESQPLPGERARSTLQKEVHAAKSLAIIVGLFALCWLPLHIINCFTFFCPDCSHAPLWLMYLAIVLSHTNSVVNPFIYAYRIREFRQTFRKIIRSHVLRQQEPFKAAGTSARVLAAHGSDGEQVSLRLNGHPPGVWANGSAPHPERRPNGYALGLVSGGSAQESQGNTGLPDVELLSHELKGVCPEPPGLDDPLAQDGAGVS

## CCn1c(=O)c2c(C)c(C(=O)N3CCC(O)CC3)sc2n(CCC(F)(F)F)c1=O
[1]
  logP: 1.99
Cytochrome P450 1A2
  IC50: > 20 µM
Cytochrome P450 3A4
  IC50: > 20 µM
[2]
  CLhep predicted: < 3.5 mL/min/kg
[3]
  efflux ratio: 0.82
[4]
  MEC: 21 ×10⁻⁶ mol/L
[5]
  AUC/dose: 0.88 kg·h/L
[6]
  AUC/dose: 2.5 kg·h/L
[7]
  clearance: 7.33 mL/min/kg
[8]
  bioavailability: 88%
Adenosine receptor A2a
  IC50: 0.82 µM
Mus musculus
  Activity: inactive
